Reference: patent publication US11312719B2, “9-substituted amino triazolo quinazoline derivatives as adenosine receptor antagonists, pharmaceutical compositions and their use” (Merck Sharp & Dohme Corp., priority 2018, dated 2022)

Experiments:
[1] = biological target: human A2a adenosine receptor (Homo sapiens (Human), UniProt P29274); test: A2a receptor affinity radioligand binding assay ([3H] SCH58261); settings: membranes from HEK293 or CHO cells expressing human A2a receptor
How it was run: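 Membranes from HEK293 or CHO cells expressing human A2a were preincubated 15–30 min at room temperature with compound, then incubated 60 min at room temperature with [3H]SCH58261 (diluted to 4 nM) in 50 mM Tris pH 7.4, 10 mM MgCl2, 0.005% Tween20. Bound radioactivity was collected by filtration; nonspecific binding defined with 1 μM ZM241385; IC50 from 4-parameter logistic fit.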

[2] = biological target: human A2b adenosine receptor (Homo sapiens (Human), UniProt P29275); test: A2b radioligand filtration binding assay; settings: membranes from HEK293 cells expressing human A2b receptor
human A2b adenosine receptor, sequence (P29275 whole entry): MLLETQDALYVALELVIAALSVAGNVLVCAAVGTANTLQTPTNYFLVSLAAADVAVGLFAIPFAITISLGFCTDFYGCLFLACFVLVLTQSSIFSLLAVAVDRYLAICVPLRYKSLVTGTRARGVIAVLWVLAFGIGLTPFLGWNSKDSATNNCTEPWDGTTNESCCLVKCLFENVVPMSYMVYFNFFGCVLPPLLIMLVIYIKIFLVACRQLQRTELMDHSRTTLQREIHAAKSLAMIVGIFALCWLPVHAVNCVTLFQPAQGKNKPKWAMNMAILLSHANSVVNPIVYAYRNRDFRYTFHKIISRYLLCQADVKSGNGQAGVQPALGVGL
How it was run: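 Membranes from HEK293 cells expressing human A2b receptor preincubated with compound 15 to 30 min at room temperature, then tritiated proprietary A2b antagonist (diluted to 14 nM before addition) added in PBS pH 7.4 for 60 min at room temperature. Bound radioactivity by filtration and scintillation; non-specific binding with 20 μM NECA; IC50 by 4-parameter logistic fit.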

human A2a adenosine receptor, sequence (P29274 whole entry): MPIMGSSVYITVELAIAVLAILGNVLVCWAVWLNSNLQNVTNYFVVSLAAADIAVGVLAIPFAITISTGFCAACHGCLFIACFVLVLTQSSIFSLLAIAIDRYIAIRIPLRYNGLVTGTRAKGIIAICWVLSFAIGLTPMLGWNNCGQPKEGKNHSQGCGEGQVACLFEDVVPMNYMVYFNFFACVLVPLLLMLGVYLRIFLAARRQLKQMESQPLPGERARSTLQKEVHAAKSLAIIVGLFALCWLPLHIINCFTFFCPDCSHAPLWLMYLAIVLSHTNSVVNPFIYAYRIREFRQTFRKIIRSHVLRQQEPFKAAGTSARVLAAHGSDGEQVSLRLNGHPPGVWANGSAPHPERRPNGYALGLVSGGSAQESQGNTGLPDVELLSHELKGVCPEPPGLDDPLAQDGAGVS

IC50 [1] [µM] | IC50 [2] [µM] | SMILES
0.0021 | 0.137 | CCn1cc([C@@]2(O)CCCC(c3nc4c5cc(F)c(OC)cc5nc(N)n4n3)C2)cn1 (single isomer, unassigned) [Example 146, (1R or 1S,3R or 3S)-3-(5-amino-9-fluoro-8-methoxy-[1,2,4]triazolo[1,5-c]quinazolin-2-yl)-1-(1-ethyl-1H-pyrazol-4-yl)cyclohexan-1-ol]
0.87 | 6.33 | CCn1cc([C@]2(O)CCC[C@H](c3nc4c5cc(F)c(OC)cc5nc(N)n4n3)C2)cn1 (single isomer, unassigned) [Example 147, (1S or 1R,3S or 3R)-3-(5-amino-9-fluoro-8-methoxy-[1,2,4]triazolo[1,5-c]quinazolin-2-yl)-1-(1-ethyl-1H-pyrazol-4-yl)cyclohexan-1-ol]
0.385 | 4.43 | CCn1cc([C@]2(O)CCC[C@@H](c3nc4c5cc(F)c(OC)cc5nc(N)n4n3)C2)cn1 (single isomer, unassigned) [Example 148, (1S or 1R,3R or 3S)-3-(5-amino-9-fluoro-8-methoxy-[1,2,4]triazolo[1,5-c]quinazolin-2-yl)-1-(1-ethyl-1H-pyrazol-4-yl)cyclohexan-1-ol]
0.0018 | 0.0966 | CCn1cc([C@]2(O)CCC[C@@H](c3nc4c5cc(F)c(OC)cc5nc(N)n4n3)C2)cn1 (single isomer, unassigned) [Example 149, (1S or 1R,3R or 3S)-3-(5-amino-9-fluoro-8-methoxy-[1,2,4]triazolo[1,5-c]quinazolin-2-yl)-1-(1-ethyl-1H-pyrazol-4-yl)cyclohexan-1-ol]
0.0075 | 0.554 | COc1cc2nc(N)n3nc([C@@H]4CCCN(c5ncn(CC(C)(C)O)n5)C4)nc3c2cc1F [Example 1, (R)-1-(3-(3-(5-amino-9-fluoro-8-methoxy-[1,2,4]triazolo[1,5-c]quinazolin-2-yl)piperidin-1-yl)-1H-1,2,4-triazol-1-yl)-2-methylpropan-2-ol]
0.0037 | 0.0094 | COc1cc2nc(N)n3nc([C@@H]4CCCN(c5cnn(C)c5)C4)nc3c2cc1F [Example 2, (R)-9-fluoro-8-methoxy-2-(1-(1-methyl-1H-pyrazol-4-yl)piperidin-3-yl)-[1,2,4]triazolo[1,5-c]quinazolin-5-amine]
0.0015 | 0.18 | COc1cc2nc(N)n3nc([C@@H]4CCCN(c5cnn(C(C)(C)C)c5)C4)nc3c2cc1F [Example 3, (R)-2-(1-(1-(tert-butyl)-1H-pyrazol-4-yl)piperidin-3-yl)-9-fluoro-8-methoxy-[1,2,4]triazolo[1,5-c]quinazolin-5-amine]
0.0046 | 0.0026 | COc1cc2nc(N)n3nc([C@@H]4CCCN(c5cnn(C(C)C)c5)C4)nc3c2cc1F [Example 4, (R)-9-fluoro-2-(1-(1-isopropyl-1H-pyrazol-4-yl)piperidin-3-yl)-8-methoxy-[1,2,4]triazolo[1,5-c]quinazolin-5-amine]
0.0033 | 0.0016 | COc1cc2nc(N)n3nc([C@@H]4CCCN(c5cnn(CC(F)(F)F)c5)C4)nc3c2cc1F [Example 5, (R)-9-fluoro-8-methoxy-2-(1-(1-(2,2,2-trifluoroethyl)-1H-pyrazol-4-yl)piperidin-3-yl)[1,2,4]triazolo[1,5-c]quinazolin-5-amine]
0.002 | 0.0859 | COc1cc2nc(N)n3nc([C@@H]4CCCN(c5cn(C)nn5)C4)nc3c2cc1F [Example 6, (R)-9-fluoro-8-methoxy-2-(1-(1-methyl-1H-1,2,3-triazol-4-yl)piperidin-3-yl)-[1,2,4]triazolo[1,5-c]quinazolin-5-amine]
0.0037 | 0.104 | COc1cc2nc(N)n3nc([C@@H]4CCCN(c5cnn(CC(C)(C)O)c5)C4)nc3c2cc1F [Example 7, (R)-1-(4-(3-(5-amino-9-fluoro-8-methoxy-[1,2,4]triazolo[1,5-c]quinazolin-2-yl)piperidin-l-yl)-1H-pyrazol-1-yl)-2-methylpropan-2-ol]
0.0045 | 0.149 | COc1cc2nc(N)n3nc([C@@H]4CCCN(c5cnn(CC(C)(C)O)c5C)C4)nc3c2cc1F [Example 8, (R)-1-(4-(3-(5-amino-9-fluoro-8-methoxy-[1,2,4]triazolo [1,5-c]quinazolin-2-yl)piperidin-l-yl)-5-methyl-1H-pyrazol-1-yl)-2-methylpropan-2-ol]
0.0005 | 0.136 | COc1cc2nc(N)n3nc([C@@H]4CCCN(c5cn(CC(C)(C)O)nc5C)C4)nc3c2cc1F [Example 9, (R)-1-(4-(3-(5-amino-9-fluoro-8-methoxy-[1,2,4]triazolo [1,5-c]quinazolin-2-yl)piperidin-1-yl)-3-methyl-1H-pyrazol-1-yl)-2-methylpropan-2-ol]
0.0035 | 0.0634 | COc1cc2nc(N)n3nc([C@@H]4CCCN(c5cnn(CC6(O)CCC6)c5)C4)nc3c2cc1F [Example 10, (R)-1-((4-(3-(5-amino-9-fluoro-8-methoxy-[1,2,4]triazolo [1,5-c]quinazolin-2-yl)piperidin-1-yl)-1H-pyrazol-1-yl)methyl)cyclobutan-1-ol]
0.0005 | 0.056 | COc1cc2nc(N)n3nc([C@@H]4CCCN(c5cn(C(C)(C)CO)nc5C)C4)nc3c2cc1F [Example 11, (R)-2-(4-(3-(5-amino-9-fluoro-8-methoxy-[1,2,4]triazolo[1,5-c]quinazolin-2-yl)piperidin-1-yl)-3-methyl-1H-pyrazol-1-yl)-2-methylpropan-1-ol]
0.003 | 0.225 | COc1cc2nc(N)n3nc([C@@H]4CCCN(c5cnn([C@H]6C[C@@](C)(O)C6)c5)C4)nc3c2cc1F [Example 14, (1s,3s)-3-(4-((R)-3-(5-amino-9-fluoro-8-methoxy-[1,2,4]triazolo[1,5-c]quinazolin-2-yl)piperidin-l-yl)-1H-pyrazol-1-yl)-methylcyclobutan-1-ol]
0.0384 | 0.905 | COc1cc2nc(N)n3nc([C@@H]4CCCN(c5cnn(CC6(C)COC6)c5)C4)nc3c2cc1F [Example 15, (R)-9-fluoro-8-methoxy-2-(1-(1-((3-methyloxetan-3-yl)methyl)-1H-pyrazol-4-yl)piperidin-3-yl)[1,2,4] triazolo[1,5-c]quinazolin-5-amine]
0.0008 | 0.426 | COc1cc2nc(N)n3nc([C@@H]4CCCN(c5cnn(C6CCOCC6)c5C)C4)nc3c2cc1F [Example 16, (R)-9-fluoro-8-methoxy-2-(1-(5-methyl-1-(tetrahydro-2H-pyran-4-yl)-1H-pyrazol-4-yl)piperidin-3-yl)-[1,2,4]triazolo[1,5-c]quinazoliu-5-amine]
0.0017 | 0.434 | COc1cc2nc(N)n3nc([C@@H]4CCCN(c5cn(C6CCOCC6)nc5C)C4)nc3c2cc1F [Example 17, (R)-9-fluoro-8-methoxy-2-(1-(3-methyl-1-(tetrahydro-2H-pyran-4-yl)-1H-pyrazol-4-yl)piperidin-3-yl) [1,2,4]triazolo[1,5-c]quinazolin-5-amine]
0.0007 | 0.0135 | COc1cc2nc(N)n3nc([C@@H]4CCCN(c5cnn(C6CCOCC6)c5C(F)F)C4)nc3c2cc1F [Example 18, (R)-2-(1-(5-(difluoromethyl)-1-(tettahydro-2H-pyran-4-yl)-1H-pyrazol-4-yl)piperidin-3-yl)-9-fluoro-8-methoxy-[1,2,4]triazolo[1,5-c]quinazolin-5-amine]
0.0007 | 0.0873 | COc1cc2nc(N)n3nc([C@@H]4CCCN(c5cn(C6CCOCC6)nc5C(F)F)C4)nc3c2cc1F [Example 19, (R)-2-(1-(3-(difluoromethyl)-1-(tetrahydro-2H-pyran-4-yl)-1H-pyrazol-4-yl)piperidin-3-yl)-9-fluoro-8-methoxy-[1,2,4]triazolo[1,5-c]quinazolin-5-amine]
0.0058 | 0.163 | CCn1cc(N2CCC[C@@H](c3nc4c5cc(F)c(OC)cc5nc(N)n4n3)C2)c(CO)n1 [Example 20, (R)-(4-(3-(5-amino-9-fluoro-8-methoxy-[1,2,4]triazolo[1,5-c]quinazolin-2-yl)piperidin-1-yl)-ethyl-1H-pyrazol-3-yl)methanol]
0.0003 | 0.515 | COc1cc2nc(N)n3nc([C@@H]4CCCN(c5cn(CC(C)(C)O)nc5C5CC5)C4)nc3c2cc1F [Example 21, (R)-1-(4-(3-(5-amino-9-fluoro-8-methoxy-[1,2,4]triazolo[1,5-c]quinazolin-2-yl)piperidin-1-yl)-3-cyclopropyl-1H-pyrazol-1-yl)-2-methylpropan-2-ol]
0.0086 | 0.0276 | COc1cc2nc(N)n3nc([C@@H]4CCCN(c5ccc(OC(F)F)nc5)C4)nc3c2cc1F [Example 22, (R)-2-(1-(6-(difluoromethoxy)pyridin-3-yl)piperidin-3-yl)-9-fluoro-8-methoxy[1,2,4]triazolo[1,5-c]quinazolin-5-amine]
0.002 | 0.0159 | COc1cc2nc(N)n3nc([C@@H]4CCCN(c5ccc(OC(C)C)nc5)C4)nc3c2cc1F [Example 23, (R)-9-fluoro-2-(1-(6-isopropoxypyridin-3-yl)piperidin-3-yl)-8-methoxy-[1,2,4]triazolo[1,5-c]quinazolin-5-amine]

SMILES | IC50 [1] [µM] | IC50 [2] [µM]
COc1cccc2c1nc(N)n1nc([C@@H]3CCC[C@](O)(c4cnn(CC(C)(C)O)c4)C3)nc21 (single isomer, unassigned) [Example 150, (1R,3R or 1S,3S)-3-(5-amino-7-methoxy-[1,2,4]triazolo[1,5-c]quinazolin-2-yl)-1-(1-(2-hydroxy-2-methylpropyl)-1H-pyrazol-4-yl)cyclohexan-1-ol] | 0.0014 | 0.181
